Source: US12459914B2, “Compounds and compositions for the treatment of tumors” (FONDAZIONE ISTITUTO ITALIANO DI TECNOLOGIA, priority 2019, dated 2025)

Experiments:
BRC4/RAD51 interaction = biological target: T1, BRC4/RAD51 interaction (Homo sapiens, UniProt Q06609); assay: Competitive ELISA assay, disruption of BRC4/RAD51 interaction; format: binding; conditions: human Rad51, biotinylated BRC4 peptide
T1 construct: purchased Creative Biomart (Rad51); Life Technologies (BRC4 peptide)
T1 sequence (Q06609 1-339): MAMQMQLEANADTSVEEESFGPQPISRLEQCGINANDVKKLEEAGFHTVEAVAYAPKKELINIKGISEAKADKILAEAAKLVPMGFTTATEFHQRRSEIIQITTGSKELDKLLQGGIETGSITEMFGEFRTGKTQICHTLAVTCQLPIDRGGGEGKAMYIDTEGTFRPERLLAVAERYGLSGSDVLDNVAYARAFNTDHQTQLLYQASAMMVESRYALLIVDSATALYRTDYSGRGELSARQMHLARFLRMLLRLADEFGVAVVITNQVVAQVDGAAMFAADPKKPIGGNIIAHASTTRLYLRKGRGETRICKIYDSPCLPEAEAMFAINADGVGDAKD
Procedure: A competitive ELISA screening assay using biotinylated BRC4 peptide to disrupt the BRC4/RAD51 interaction was performed by modifying the method described by Rajendra et al. (Nucleic Acids Res. 38 (2010) 82-96). BRC4-biotinylated peptide (N-term Biotin[…] from Life Technologies) was used to coat 384-well plates (Nunc). After washing with PBS containing 0.05% Tween-20 (PBST), and blocking with the solution BSA 1%/PBST, overnight hybridization with human Rad51 protein (NP_002866 Creative Biomart, NY) was performed. Test compounds were added in dose-response from […] in triplicate with constant DMSO 1%. Antibody raised against Rad51 (Millipore) and HRP-secondary antibody staining to develop the 3,30,5,50-tetramethyllbenzidine signal (Sigma) quenched with 1M HCl was used as the assay readout. Colorimetric measure was read on Victor5 (PerkinElmer) plate Reader. BRC4 and Rad51 were included in the assay as positive control. Results were analyzed using GraphPad Software.

BxPC-3 cells [1] = assay: Cell viability assay (CellTiter Glo); format: cell-based; conditions: Homo sapiens, 72 h
Procedure: (§1) BxPC-3 cells were grown in RPMI 1640 containing 10% FBS, 100 U/ml penicillin/streptomycin, 2 mM glutamine. All media and supplements were from Sigma-Aldrich. Cultures were routinely tested for Mycoplasma contamination. Treatments (Olaparib and BRCA2-Rad51 disruptors) were administered in culture medium supplemented with 0.6% DMSO. The same amount of DMSO was added to the control, untreated cultures.
(§2) Cell viability was assessed by CellTiter Glo, Luminescent Cell Viability Assay. Briefly, BxPC-3 cells (1×10^4/well) were plated in white 96-well plates with clear bottom and treated for 72 h with olaparib (10 μM) or with the BRCA2-Rad51 disruptors, given alone or in combination. After treatments, the plate was allowed to equilibrate at room temperature for 30 min and the CellTiter-Glo reactive was directly added to each well. The plate was kept on a shaker for 2 min to induce cell lysis and its luminescence was measured by using a Fluoroskan Ascent FL reader (Labsystems) using manufacturer's instructions.

BxPC-3 cells [2] = assay: Association with olaparib (given alone or in combination), cell viability / cytotoxicity; format: cell-based; conditions: olaparib 10 μM, 72 h
Procedure: as §1, §2
Cell death was assessed by applying the CellTox™ Green Cytotoxicity assay (Promega). Briefly, BxPC-3 (1×10^4/well) were plated in black 96-well plates with clear bottom and treated for 72 h with olaparib (10 μM) or with the BRCA2-Rad51 disruptors, given alone or in combination. At the end of treatment, the CellTox™ dye was added to cell cultures and the green fluorescence signal, which is produced by the binding interaction with dead cell DNA, was measured following the manufacturer's instructions. The fluorescence signal was detected using the EnSpire 2300 Multilabel Reader (Perkin Elmer); for each sample, the obtained signal was normalized on the number of viable cells, detected by the CellTiterGlo reagent.

[3] = test system: Homologous recombination (HR) in BxPC3 cells; assay: Homologous recombination assay (HR); format: cell-based; conditions: Homo sapiens; for inhibition at 20 µM: BXPC-3, at 20 μM
Procedure: Homologous recombination (HR) was assessed by using a commercially available assay (Norgen). This assay is based on cell co-transfection with two plasmids that, upon cells entering, recombinate. The efficiency of HR can be assessed by real time PCR, using primer mixtures included in the assay kit. Different primer mixtures allow differentiation between the original plasmid backbones and their recombination product.
BxPC3 cells (2×10^3 per well) were seeded in a 24-well plate and allowed to adhere overnight. Co-transfection with the two plasmids was performed in Lipofectamine 2000 (Invitrogen) for 5 h, according to the manufacturer's instructions. During transfection cells were exposed at different doses of BRCA2-Rad51 disruptors, dissolved in RPMI without serum in the presence of 0.6% DMSO.
After washing with PBS, cells were harvested, and DNA was isolated using QIAamp® DNA Mini Kit (Qiagen). Sample concentration was measured using an ONDA Nano Genius photometer.
The thermal cycler (CFX96 ™ Real Time System, BioRad) was programmed as follows: initial denaturation 95° C. for 3 min then 95° C. for 15 sec., 61° C. for 30 sec., 72° C. for 1 min and repeated for 40 cycles. Melt curve analysis was done. Samples were run in triplicate, in 10 μl reaction volume containing 25 ng of template.
In each DNA sample from control and treated cultures, the ΔCt between the recombination product and the backbone plasmids was calculated. HR efficiency was evaluated from the 2^−ΔΔ^Ct value obtained by comparing treated vs control samples.

EC50 (BRC4/RAD51 interaction) [µM] | EC50 (BxPC-3 cells [1]) [µM] | Structure (SMILES) | Olaparib Assoc. (BxPC-3 cells [2]) | inhibition at 5 µM ([3]; BXPC-3, at 5 μM) [%] | inhibition at 40 µM ([3]; BXPC-3, at 40 μM) [%] | inhibition at 20 µM [3] [%]
70 | 23.2 | O=C(O)CCC(=O)N1N=C(c2c(Cc3ccccc3)c3cc(Cl)ccc3[nH]c2=O)CC1c1ccc(Cl)cc1 (stereo not drawn) [d.55, 4-[5-(4-benzyl-6-chloro-2-oxo-1H-quinolin-3-yl)-3-(4-chlorophenyl)-3,4-dihydropyrazol-2-yl]-4-oxo-butanoic acid] |  |  |  | 
25 | 79.2 | COc1ccc(C2CC(c3c(Cc4ccccc4)c4cc(Cl)ccc4[nH]c3=O)=NN2C(=O)CCC(=O)O)cc1F (stereo not drawn) [d.66, 4-[5-(4-benzyl-6-chloro-2-oxo-1H-quinolin-3-yl)-3-(3-fluoro-4-methoxy-phenyl)-3,4-dihydropyrazol-2-yl]-4-oxo-butanoic acid] |  |  |  | 6.15
90 | 28.4 | O=C(O)CCC(=O)N1N=C(c2c(Cc3ccccc3)c3cc(Cl)ccc3[nH]c2=O)CC1c1ccc(-c2ccc(Cl)cc2)cc1 (stereo not drawn) [d.84, 4-[5-(4-benzyl-6-chloro-2-oxo-1H-quinolin-3-yl)-3-[4-(4-chlorophenyl)phenyl]-3,4-dihydropyrazol-2-yl]-4-oxo-butanoic acid] |  |  |  | 21.7
53 | 56.6 | CCn1cc2cc(-c3ccc(C4CC(c5c(Cc6ccccc6)c6cc(Cl)ccc6[nH]c5=O)=NN4C(=O)CCC(=O)O)cc3)ccc2n1 (stereo not drawn) [d.93, 4-[5-(4-benzyl-6-chloro-2-oxo-1H-quinolin-3-yl)-3-[4-(2-ethylindazol-5-yl)phenyl]-3,4-dihydropyrazol-2-yl]-4-oxo-butanoic acid] |  |  |  | 
60 | 24.3 | CC(=O)N1N=C(c2c(-c3ccccc3)c3cc(Cl)ccc3[nH]c2=O)CC1c1ccncc1 (stereo not drawn) [d.97, 3-(1-acetyl-5-(pyridin-4-yl)-4,5-dihydro-1H-pyrazol-3-yl)-6-chloro-4-phenylquinolin-2 (1H)-one] |  |  |  | 
75 | 144 | O=C(O)CCC(=O)N1N=C(c2c(-c3ccccc3)c3cc(Cl)ccc3[nH]c2=O)CC1c1cccnc1 (stereo not drawn) [d.98, 4-(3-(6-chloro-2-oxo-4-phenyl-1,2-dihydroquinolin-3-yl)-5-(pyridin-3-yl)-4,5-dihydro-1H-pyrazol-1-yl)-4-oxobutanoic acid] |  |  |  | 22

Further lines, the molecule ahead of its results:

Structure (SMILES) | EC50 (BRC4/RAD51 interaction) [µM] | EC50 (BxPC-3 cells [1]) [µM] | Olaparib Assoc. (BxPC-3 cells [2]) | inhibition at 5 µM ([3]; BXPC-3, at 5 μM) [%] | inhibition at 40 µM ([3]; BXPC-3, at 40 μM) [%] | inhibition at 20 µM [3] [%]
Cn1ccc2cc(C3CC(c4c(-c5ccccc5)c5cc(Cl)ccc5[nH]c4=O)=NN3C(=O)CCC(=O)O)ccc21 (stereo not drawn) [d.22, 4-[5-(6-chloro-2-oxo-4-phenyl-1H-quinolin-3-yl)-3-(1-methylindol-5-yl)-3,4-dihydropyrazol-2-yl]-4-oxo-butanoic acid] | 2 | > 20 | synergy |  |  | 
CCCn1ncc2cc(C3CC(c4c(-c5ccccc5)c5cc(Cl)ccc5[nH]c4=O)=NN3C(C)=O)ccc21 (stereo not drawn) [d.34, 3-[2-acetyl-3-(1-propylindazol-5-yl)-3,4-dihydropyrazol-5-yl]-6-chloro-4-phenyl-1H-quinolin-2-one] | 0.95 | 11 |  | 83 |  | 
O=C(O)CCC(=O)N1N=C(c2c(-c3ccccc3)c3cc(Cl)ccc3[nH]c2=O)CC1c1ccc(-c2ccc(Cl)cc2)cc1 (stereo not drawn) [d.37, 4-[5-(6-chloro-2-oxo-4-phenyl-1H-quinolin-3-yl)-3-[4-(4-chlorophenyl)phenyl]-3,4-dihydropyrazol-2-yl]-4-oxo-butanoic acid] | 25 | 41.5 |  |  |  | 
CC(=O)N1N=C(c2c(-c3ccccc3)c3cc(Cl)ccc3[nH]c2=O)CC1c1ccc(-c2ccc(Cl)cc2)cc1 (stereo not drawn) [d.38, 3-[2-acetyl-3-[4-(4-chlorophenyl)phenyl]-3,4-dihydropyrazol-5-yl]-6-chloro-4-phenyl-1H-quinolin-2-one] | 45 | 18.8 |  |  |  | 
CC(=O)N1N=C(c2c(-c3ccccc3)c3cc(Cl)ccc3[nH]c2=O)CC1c1ccc(-c2ccc(Br)cc2)cc1 (stereo not drawn) [d.40, 3-[2-acetyl-3-[4-(4-bromophenyl)phenyl]-3,4-dihydropyrazol-5-yl]-6-chloro-4-phenyl-1H-quinolin-2-one] | 45 | 28 |  |  |  | 
CCCn1cc(-c2ccc(C3CC(c4c(-c5ccccc5)c5cc(Cl)ccc5[nH]c4=O)=NN3C(=O)CCC(=O)O)cc2)cn1 (stereo not drawn) [d.43, 4-[5-(6-chloro-2-oxo-4-phenyl-1H-quinolin-3-yl)-3-[4-(1-propylpyrazol-4-yl)phenyl]-3,4-dihydropyrazol-2-yl]-4-oxo-butanoic acid] | 65 | 74.2 |  |  |  | 
CCn1cc2cc(-c3ccc(C4CC(c5c(-c6ccccc6)c6cc(Cl)ccc6[nH]c5=O)=NN4C(=O)CCC(=O)O)cc3)ccc2n1 (stereo not drawn) [d.46, 4-[5-(6-chloro-2-oxo-4-phenyl-1H-quinolin-3-yl)-3-[4-(2-ethylindazol-5-yl)phenyl]-3,4-dihydropyrazol-2-yl]-4-oxo-butanoic acid] | 17 | 44 | synergy |  | 91.7 | 
CC(=O)N1N=C(c2c(-c3ccccc3)c3cc(Cl)ccc3[nH]c2=O)CC1c1ccccc1 (stereo not drawn) [d.47, 3-(2-acetyl-3-phenyl-3,4-dihydropyrazol-5-yl)-6-chloro-4-phenyl-1H-quinolin-2-one] | 19 | 29.7 |  |  |  | 
CCC(=O)N1N=C(c2c(-c3ccccc3)c3cc(Cl)ccc3[nH]c2=O)CC1c1ccccc1 (stereo not drawn) [d.48, 6-chloro-4-phenyl-3-(3-phenyl-2-propanoyl-3,4-dihydropyrazol-5-yl)-1H-quinolin-2-one] | 24 | 13.7 |  |  |  | 
CC(=O)N1N=C(c2c(Cc3ccccc3)c3cc(Cl)ccc3[nH]c2=O)CC1c1ccc(F)cc1 (stereo not drawn) [d.51, 3-[2-acetyl-3-(4-fluorophenyl)-3,4-dihydropyrazol-5-yl]-4-benzyl-6-chloro-1H-quinolin-2-one] | 13 | 15.2 |  |  |  | 
